# Results published in patent publication US10722496B2, “2-iminobiotin for use in the treatment of brain cell injury” (Neurophyxia B.V., priority 2015, dated 2020).
# Tests used:
# [1] = Toxicokinetics, repeated i.v. pulse infusions to adult rats; assay type: in vivo, rat; settings: for mean AUC 0-4-hour: 6.6 mg/kg per 15-minute i.v. pulse, first and last pulse
# Description: The toxicokinetics of 2-IB was studied over a 96-hour period by i.v. pulse infusions to adult rats. The purpose of this study was to generate toxicokinetic parameters (Cmax, tmax, AUC, t1/2) from 2-IB plasma concentrations in male and female rats after repeated i.v. infusion.
# Group 1 received vehicle only. Systemic exposure was monitored on day 0 and day 4. Blood sampling was conducted at 15 minutes and 0.5, 1 and 4 hours after the first infusion, and 15 minutes and 0.5, 1, 4, 8 and 24 hours following the last dose.
# [2] = Phase I clinical study pharmacokinetics, pulse i.v. infusion in healthy male subjects; assay type: in vivo, human; settings: for mean AUC 4 hours: 6 pulses of 0.6 mg/kg in a 24-hour period
# Text: The pharmacokinetics of 2-IB have been investigated in a Phase I clinical study in which the safety and tolerability of single and multiple doses of 2-IB pulse i.v. infusion in healthy male subjects were investigated. The study was a randomized, double-blind, placebo-controlled, dose escalation study with 3 groups of 6 healthy male subjects receiving a single i.v. infusion or pulsed i.v. infusions of 2-IB or placebo in 3 periods. Treatments were randomized such that each subject received 2 out of 3 foreseen dose levels of 2-IB and once placebo.
# [3] = test system: PARP, akt and erkl/2; experiment: Western blotting for PARP, akt and erkl/2 under mild hypothermia; assay type: cell-based, human; settings: post-hypoxic addition (30 ng/ml)
# Description: (§1) In-vitro hypoxia was induced for 7 hours using IMR-32 cell cultures. After the hypoxic insult, cultures were subjected to 25 hours of mild hypothermia (33.5° C.) and were incubated with or without 2-IB (10, 30, 50, 100 and 300 ng/ml). Cell morphology was evaluated by brightfield microscopy and cell damage was analyzed by LDH assays. Production of reactive oxygen species (ROS) was measured using fluorometric assays. Western blotting for PARP and phosphorylated as well as unphosphorylated akt and erkl/2 was performed.
# [4] = test system: IMR-32 cell cultures; experiment: LDH assay after hypoxia under mild hypothermia; assay type: cell-based, human; settings: 30 ng/ml 2-IB post-hypoxic, 25 hours mild hypothermia (33.5° C.)
# Description: as §1
# [5] = test system: akt; experiment: Western blotting, akt phosphorylation; assay type: cell-based, human
# Description: In vitro hypoxia was induced in the cell cultures by using our recently described system with minor modifications (Huang et al., 2013b; Weber et al., 2015; Zitta et al., 2010). Enzyme stock solutions (100×) of catalase and glucose oxidase (both from Sigma-Aldrich) were prepared in cell culture medium (DMEM/F12, 1% FCS; final concentration: 120 U/ml and 2 U/ml respectively; Sigma-Aldrich) leading to a decrease of partial pressure of oxygen (pO2) below 10 mmHg within 5 minutes. Hypoxic conditions were confirmed by using a tissue oxygen pressure monitor (LICOX® CMP Oxygen Catheter; Integra, Plainsboro, USA). After 7 hours of hypoxia, the cells were washed twice with PBS (PAA) and fresh normoxic medium supplemented with solvent (citrate buffer 1%) or 2-IB (10, 30, 50, 100 and 300 ng/mL) was added to the cells. […]
# Protein extraction was performed using RIPA buffer containing 150 mM sodium chloride, 1% NP-40, 1% sodium deoxycholate, 0.1% sodium dodecyl sulfate (SDS) and 50 mM Tris-HCl buffer (pH 7.6; all from Sigma-Aldrich) or alternatively M-PER buffer (Mammalian Protein Extraction Reagent; Pierce, Ill., USA). Protein concentrations were determined with Roti®-Quant assays (Carl Roth) and samples were stored at −20° C. until use. […] Images were taken and densitometrically analyzed with the software ImageJ (v1.41o, NIH).
# [6] = test system: IMR-32 cells; experiment: Hydrogen peroxide in culture medium; assay type: cell-based, human; settings: 30 ng/ml 2-IB, data not shown
# [7] = test system: IMR-32 cells; experiment: LDH cytotoxicity assay, hypoxia-induced cell damage; assay type: cell-based, human; settings: 10 ng/ml 2-IB, 17 hours after hypoxia
# [8] = test system: piglet model of perinatal global hypoxia-ischemia (HI); settings: Peeters-Scholte et al., 2002; cited from earlier work
# [9] = test system: IMR-32 cells; experiment: LDH cytotoxicity assay, hypoxia-induced cell damage; assay type: cell-based, human
# Description: In vitro hypoxia was induced in the cell cultures by using our recently described system with minor modifications (Huang et al., 2013b; Weber et al., 2015; Zitta et al., 2010). Enzyme stock solutions (100×) of catalase and glucose oxidase (both from Sigma-Aldrich) were prepared in cell culture medium (DMEM/F12, 1% FCS; final concentration: 120 U/ml and 2 U/ml respectively; Sigma-Aldrich) leading to a decrease of partial pressure of oxygen (pO2) below 10 mmHg within 5 minutes. Hypoxic conditions were confirmed by using a tissue oxygen pressure monitor (LICOX® CMP Oxygen Catheter; Integra, Plainsboro, USA). After 7 hours of hypoxia, the cells were washed twice with PBS (PAA) and fresh normoxic medium supplemented with solvent (citrate buffer 1%) or 2-IB (10, 30, 50, 100 and 300 ng/mL) was added to the cells. Investigations of cell damage, metabolic activity, ROS, hydrogen peroxide, nitrite/nitrate production, erkl/2, akt and stat5 phosphorylation as well as cell stress protein expression were performed with cell culture media or cell protein (FIG. 1).
# The release of LDH from cultured cells into the medium was quantified by using a colorimetric cytotoxicity detection kit (Roche, Mannheim, Germany). Samples were prepared based on the manufacturer's protocol. Briefly, culture media were collected 24 hours after hypoxia and stored at −20° C. For evaluation of total LDH, cells were lysed with 2% TRITON® X-100 (Carl Roth, Karlsruhe, Germany) for 15 minutes at 37° C. LDH activity of the samples was measured in 96-well plates at 490 nm using an ELISA reader (Tecan, Crailsheim, Austria) in combination with the Magellan software v1.1.
# [10] = test system: iNOS and nNOS; settings: Tataranno et al., 2015; cited from earlier work
compound,measurement,setting,value
"N=C1N[C@H]2[C@H](CS[C@H]2CCCCC(=O)O)N1 [2-IB, 2-iminobiotin]",mean AUC 0-4-hour,[1]; 1st of four values printed for male and female rats,2310 ng·h/mL
same,mean AUC 0-4-hour,[1]; 2nd of four values printed for male and female rats,2530 ng·h/mL
same,mean AUC 0-4-hour,[1]; 3rd of four values printed for male and female rats,1750 ng·h/mL
same,mean AUC 0-4-hour,[1]; 4th of four values printed for male and female rats,1950 ng·h/mL
same,overall mean AUC 0-4-hour,"[1]; 6.6 mg/kg per pulse, across sexes and first and last pulses",about 2135 ng·h/mL
same,AUC expected,"[1]; rat, 3.3 mg/kg dose level, assuming linear PK",about 1068 ng·h/mL
same,mean AUC 0-4 hours on average,"[2]; 0.6 mg/kg pulses, during the 24-hour dosing period",about 1305 ng·h/mL
same,mean AUC 4 hours,[2]; after the first infusion,1170 ng·h/mL
same,mean AUC 4 hours,[2]; after the last infusion,1441 ng·h/mL
same,"cleavage of PARP, akt and erkl/2 phosphorylation",[3],did not influence cleavage or phosphorylation of the mentioned molecules
same,hypoxia-induced LDH release,[4],reduced the hypoxia-induced LDH release even under hypothermia
same,phospho akt/akt,[5]; hypoxia plus 30 ng/ml 2-IB,0.60±0.33
same,phospho akt/akt,[5]; normoxia plus 30 ng/ml 2-IB,0.78±0.54
same,hypoxia-induced release of hydrogen peroxide,[6],did not attenuate the hypoxia-induced release of hydrogen peroxide
same,LDH/total LDH,[7]; hypoxia,0.15±0.03
same,LDH/total LDH,[7]; normoxia,0.09±0.02
same,neurological damage,[8],reduces the amount of neurological damage
same,LDH/total LDH,"[9]; 30 ng/ml 2-IB, hypoxia",0.13±0.02
same,LDH/total LDH,"[9]; 30 ng/ml 2-IB, normoxia",0.11±0.03
same,LDH/total LDH,"[9]; 50 ng/ml 2-IB, hypoxia",0.14±0.04
same,LDH/total LDH,"[9]; 50 ng/ml 2-IB, normoxia",0.14±0.04
same,LDH/total LDH,"[9]; 100 ng/ml 2-IB, hypoxia",0.15±0.03
same,LDH/total LDH,"[9]; 100 ng/ml 2-IB, normoxia",0.10±0.02
same,LDH/total LDH,"[9]; 300 ng/ml 2-IB, hypoxia",0.20±0.06
same,LDH/total LDH,"[9]; 300 ng/ml 2-IB, normoxia",0.10±0.02
same,"reduction of hypoxia-induced cell damage, most effective concentrations","[9]; 10-300 ng/ml tested, P<0.05 vs. control",30 and 50 ng/ml 2-IB were the most effective concentrations
same,inhibition of NO biosynthesis,[10],"reversible inhibitor of NO biosynthesis, blocking mainly iNOS and nNOS activity"
